Data reported in US20080132539A1, “Hydroxamic Acid Derivative And Age Generation Inhibitor Containing The Derivative” (priority 2003, published 2008).

Experiments:
Format in all cases: biochemical
[1] = tested on: Maillard reaction (lysozyme / fructose, dimer formation); assay: Maillard reaction-inhibiting effects (lysozyme dimer formation with fructose, SDS-PAGE densitometry); conditions: 10 mg/mL lysozyme, 200 mM fructose, pH 7.4, 37° C., 4 days, dimer formation inhibition rate
Description: This Example examined Maillard reaction-inhibiting effects using, as test compounds, the compounds produced in the above-described Examples and the commercially available substances arginine hydroxamate (Compound No. 111), tyrosine hydroxamate (Compound No. 112), and tryptophan hydroxamate (Compound No. 113). More specifically, 10 mg/mL lysozyme, 200 mM fructose, and each of the above-described test compounds dissolved in a 0.4 mM sodium phosphate buffer (pH 7.4) so as to provide a concentrations of 0.1, 0.3, 1, or 3 mM were incubated at 37° C. for 4 days. After the incubation, the samples were subjected to SDS-PAGE, stained with Coomassie Brilliant Blue R-250, and quantitated for the formed dimmers using a densitometer. The Maillard reaction-inhibiting activity was defined as the dimmer formation inhibition rate of a test compound calculated on the basis that the amount of dimmer is 100% in the absence of the test compound, using, as blank, the amount of dimer in the absence of fructose and the test compound.

[2] = Methyl glyoxal-trapping activity test (DMB derivatisation, HPLC); conditions: 0.02 mM methyl glyoxal, 0.2 mM test compound, PBS, 37° C., 30 minutes
Description: (§1) In 0.2 mL of PBS were incubated 0.02 mM of methyl glyoxal and 0.2 mM of test compound at 37° C. for 30 minutes. Subsequently, a volume of 5 mM DMB (1,2-diamino-4,5-methylenedioxy benzene) solution equivalent to 10 μL of the incubation sample was added, followed by further incubation at 4° C. for 7 hours to react the remaining methyl glyoxal with DMB. After the end of reaction, a 0.4 M phosphate buffer solution (pH 7.2) was added for neutralization, followed by quantitating the modified product of methyl glyoxal-DMB using HPLC.
(§2) HPLC having a YMC-Pack Pro C18 column (φ4.6 mm×150 mm) and employing 5 mM sodium phosphate buffer (pH 7.4)-25% acetonitrile as a mobile phase was used at a flow rate of 0.7 mL/min to determine fluorescence strength at Ex352 nm and Em385 nm.
The proportion of methyl glyoxal trapped by the test compound was calculated as % trapping activity, based on the quantitative value of the total modified product of methyl glyoxal-DMB in the absence of the test compound.

[3] = Glyoxal-trapping activity test (DMB derivatisation, HPLC); conditions: 0.02 mM glyoxal, 0.2 mM test compound, PBS, 37° C., 30 minutes
Description: as §1, with “of” for “of methyl”
as §2
The proportion of glyoxal trapped by the test compound was calculated as % trapping activity, based on the quantitative value of the total modified product of glyoxal-DMB in the absence of the test compound.

[4] = test compound concentration 0.1 mM
[5] = test compound concentration 0.3 mM
[6] = test compound concentration 1 mM
[7] = test compound concentration 3 mM

SMILES	Maillard reaction-inhibiting activity (%) [1, 4]	Maillard reaction-inhibiting activity (%) [1, 5]	Maillard reaction-inhibiting activity (%) [1, 6]	Maillard reaction-inhibiting activity (%) [1, 7]	Methyl-glyoxal-trapping activity (% trapping) [2]	Glyoxal-trapping activity (% trapping) [3]
CCCCCn1cc(CC(N)C(=O)NO)c2ccccc21 (racemic) [Compound No. 105, (RS)-2-amino-3-(1-pentyl-1H-indol-3-yl)-N-hydroxypropionamide]	95%	97%	98%	98%	93.3 ± 0.8 % trapping	69.7 ± 1.1 % trapping
N#Cc1ccc(Cn2cc(CC(N)C(=O)NO)c3ccccc32)cc1 (racemic) [Compound No. 107, (RS)-2-amino-3-[1-(4-cyanobenzyl)-1H-indol-3-yl]-N-hydroxypropionamide]	101%	100%	101%	101%	87.3 ± 0.5 % trapping	69.8 ± 1.2 % trapping
N=C(N)NN [Aminoguanidine, reference compound]	−3%	−5%	7%	26%	52.8 ± 1.5 % trapping	32.9 ± 3.8 % trapping
CCCn1c(CC[C@H](N)C(=O)NO)nc2cc(Cl)c(Cl)cc21 [Compound No. 95, (S)-2-amino-4-(5,6-dichloro-1-propyl-1H-benzimidazol-2-yl)-N-hydroxybutyramide]	102%	106%	107%	108%	84.2 ± 0.6 % trapping	65.7 ± 2.2 % trapping
N#Cc1ccc(COc2ccc(C[C@H](N)C(=O)NO)cc2)cc1 [Compound No. 103, (S)-2-amino-3-[4-(4-cyanobenzyloxy)phenyl]-N-hydroxypropionamide]	89%	95%	100%	97%		
N[C@@H](Cc1cn(Cc2c(F)c(F)c(F)c(F)c2F)c2ccccc12)C(=O)NO [Compound No. 104, (S)-2-amino-3-(1-pentafluorophenylmethyl-1H-indol-3-yl)-N-hydroxypropionamide]	95%	97%	94%	100%	81.9 ± 2.1 % trapping	66.5 ± 2.4 % trapping
CCCCCn1cc(C[C@H](N)C(=O)NO)c2ccccc21 [Compound No. 109, (S)-2-amino-3-(1-pentyl-1H-indol-3-yl)-N-hydroxypropionamide]	104%	105%	104%	103%		
CCCCCn1cc(C[C@@H](N)C(=O)NO)c2ccccc21 [Compound No. 110, (R)-2-amino-3-(1-pentyl-1H-indol-3-yl)-N-hydroxypropionamide]	96%	103%	101%	101%		
NC(N)=NCCC[C@H](N)C(=O)NO [Compound No. 111, arginine hydroxamate]	10%	17%	75%	98%	77.6 ± 0.5 % trapping	75.2 ± 1.3 % trapping
N[C@@H](Cc1ccc(O)cc1)C(=O)NO [Compound No. 112, tyrosine hydroxamate]	24%	61%	99%	101%	74.4 ± 2.7 % trapping	67.8 ± 1.2 % trapping
NC(Cc1c[nH]c2ccccc12)C(=O)NO (stereo not drawn) [Compound No. 113, tryptophan hydroxamate]	42%	76%	99%	102%	96.2 ± 0.7 % trapping	75.9 ± 0.9 % trapping
